Calls of active or inactive are those of the source. No cut-off for these calls is given here.
Experiments:
Shigella boydii = assay: Antibacterial activity against Shigella boydii; assay type: functional, organism-based
Escherichia coli = assay: Antibacterial activity against Escherichia coli; assay type: functional, organism-based
[1] = system: Corynebacterium diphtheriae; assay: Antibacterial activity against Corynebacterium diphtheriae; assay type: functional, organism-based
Pseudomonas aeruginosa = assay: Antibacterial activity against Pseudomonas aeruginosa; assay type: functional, organism-based
NCI-H226 = assay: Cytotoxicity against human NCI-H226 cells; assay type: functional, cell-based

`C/C=C1/C(=O)C[C@H]2[C@@H]3[C@@H](O)CC4=CC(=O)CC[C@]4(C)[C@H]3CC[C@]12C` was tested, and the Activity (Shigella boydii) was “Active”, the Activity (Escherichia coli) was “Active” and the Activity [1] was “Active”. For the same molecule, the Activity (Pseudomonas aeruginosa) was “Active”.
In the case of `C/C=C1/C(=O)C[C@H]2[C@@H]3CCC4=CC(=O)CC[C@]4(C)[C@H]3CC[C@]12C`, the Activity (Shigella boydii) is reported as “inactive”, the Activity (Escherichia coli) is reported as “inactive” and the Activity [1] is reported as “inactive”. The Activity (Pseudomonas aeruginosa) was “inactive” and the Activity (NCI-H226) was “Active”.

Reference: ChEMBL document CHEMBL1158671, “Microbial transformations of hypolipemic E-guggulsterone” (J Nat Prod, 1998)
